Measured values reported in patent publication US4975538A, “Antibiotic sulfonylaminocarbonyl activated beta-lactams” (The Upjohn Company, priority 1989, dated 1990).
Converted amounts (≈) assume the structure as drawn.

Key:
Assay in all cases: Minimum Inhibitory Concentration (MIC), agar dilution in Mueller Hinton Agar
Format in all cases: cell-based
Streptococcus Pyogenes = settings: 20 h, culture number 152
Description: (§1) The compounds of this invention and their respective pharmaceutically acceptable salts have antibiotic activity against a variety of gram-negative bacteria including Escherichia coli, Klebsiella pneumoniae, and Pseudomonas aeruginosa. The compounds are useful for treating bacterial infections in animals, including and most preferably humans. Compounds of the invention are tested for in vitro antimicrobial activity using standard testing procedures such as the determination of minimum inhibitory concentration (MIC) by methods described in "Methods for Dilution Antimicrobial Susceptibility Tests for Bacteria That Grow Aerobically" (M7-A) Published December 1985 by the National Committee for Clinical Laboratory Standards, 771 East Lancaster Avenue, Villanova, Pa. 19084. Briefly, MIC values are determined in unsupplemented Mueller Hinton Agar (MHA). The compounds tested are diluted serially into molten MHA at 47° C. The agar is poured into petri dishes and allowed to harden. The various bacteria used for testing are grown overnight on MHA at 35° C. and transferred to Tryptiease Soy Broth (TSB) until a turbidity of 0.5 McFarland standard is obtained. The bacteria are diluted one to twenty in TSB and inoculated on the plates (1 μl using a Steers replicator).

Klebsiella Pneumoniae = settings: 20 h, culture number 58
Description: as §1

Streptococcus Faecalis = settings: Enterococcus faecalis, 20 h; culture number 694
Description: as §1

Escherichia Coli = settings: 20 h
Description: as §1

Klebsiella Oxytoca = settings: 20 h
Description: as §1

Streptococcus Pneumoniae = settings: 20 h, culture number 41
Description: as §1

Citrobacter Freundli = settings: 20 h, culture number 3507
Description: as §1

Serratia Marcescens = settings: 20 h
Description: as §1

Staphylococcus Aureus = settings: 20 h
Description: as §1

Proteus Vulgaris = settings: 20 h, culture number 9679
Description: as §1

Pseudomonas Aeruginosa = settings: 20 h
Description: as §1

Enterobacter Cloacae = settings: 20 h
Description: as §1

In the case of `Cn1c(-c2cc(=O)c(O)c[nH]2)nn(S(=O)(=O)NC(=O)N2C[C@H](NC(=O)/C(=N\OC(C)(C)C(=O)O)c3csc(N)n3)C2=O)c1=O` [E23 (b)], the MIC (Streptococcus Pyogenes) is reported as 16 µg/mL (≈ 24.4 µM), the MIC (Klebsiella Pneumoniae) is reported as 0.25 µg/mL (≈ 0.382 µM) and the MIC (Streptococcus Faecalis) is reported as greater than 64 µg/mL. It also gave an MIC (Escherichia Coli; culture number 9379) of less than 0.008 µg/mL, an MIC (Escherichia Coli; culture number 9380) of less than 0.008 µg/mL and an MIC (Escherichia Coli; culture number 9451) of less than 0.008 µg/mL. For the same molecule, the MIC (Klebsiella Oxytoca; culture number 9383) was 0.03 µg/mL (≈ 0.0458 µM), the MIC (Klebsiella Oxytoca; culture number 9384) was 0.03 µg/mL (≈ 0.0458 µM) and the MIC (Streptococcus Pneumoniae) was greater than 64 µg/mL. For the same molecule, the MIC (Citrobacter Freundli) was 0.03 µg/mL (≈ 0.0458 µM), the MIC (Serratia Marcescens; culture number 6888) was 0.015 µg/mL (≈ 0.0229 µM) and the MIC (Staphylococcus Aureus; culture number 3665) was greater than 64 µg/mL. The MIC (Staphylococcus Aureus; culture number 6685) was greater than 64 µg/mL, the MIC (Staphylococcus Aureus; culture number 9218) was greater than 64 µg/mL and the MIC (Proteus Vulgaris) was 0.03 µg/mL (≈ 0.0458 µM). The MIC (Pseudomonas Aeruginosa; culture number 231) was 0.125 µg/mL (≈ 0.191 µM), the MIC (Pseudomonas Aeruginosa; culture number 9191) was 0.25 µg/mL (≈ 0.382 µM) and the MIC (Enterobacter Cloacae; culture number 9381) was 4 µg/mL (≈ 6.11 µM). The MIC (Enterobacter Cloacae; culture number 9382) was 0.5 µg/mL (≈ 0.764 µM).
`Nc1nc(C(=NOCC(=O)O)C(=O)NC2CN(C(=O)NS(=O)(=O)N3CC(CNC(=O)c4cc(=O)c(O)c[nH]4)OC3=O)C2=O)cs1` (stereo not shown) [E27 (a), [[[1-(2-amino-4-thiazolyl)-2-[[1-[[[[4-[[(1,4-dihydro-5-hydroxy-4-oxo-2-pyridinyl)carbonyl]amino]-[2-oxo-5-oxazolydinyl]methyl]sulfonyl]amino]carbonyl]-2-oxo-3-azetidinyl]amino]-2-oxoethylidene]amino]oxy] acetic acid] showed an MIC (Streptococcus Pyogenes) of 16 µg/mL (≈ 23.8 µM), an MIC (Klebsiella Pneumoniae) of 0.5 µg/mL (≈ 0.745 µM) and an MIC (Escherichia Coli; culture number 9379) of less than 0.06 µg/mL. It also gave an MIC (Escherichia Coli; culture number 9380) of less than 0.06 µg/mL, an MIC (Escherichia Coli; culture number 9451) of less than 0.06 µg/mL and an MIC (Klebsiella Oxytoca; culture number 9383) of 4 µg/mL (≈ 5.96 µM). The MIC (Klebsiella Oxytoca; culture number 9384) was 0.25 µg/mL (≈ 0.372 µM), the MIC (Citrobacter Freundli) was 0.25 µg/mL (≈ 0.372 µM) and the MIC (Serratia Marcescens; culture number 9888) was 0.5 µg/mL (≈ 0.745 µM). The MIC (Proteus Vulgaris) was 0.5 µg/mL (≈ 0.745 µM), the MIC (Pseudomonas Aeruginosa; culture number 231) was 4 µg/mL (≈ 5.96 µM) and the MIC (Pseudomonas Aeruginosa; culture number 9191) was 64 µg/mL (≈ 95.3 µM). It also gave an MIC (Enterobacter Cloacae; culture number 9381) of 128 µg/mL (≈ 191 µM) and an MIC (Enterobacter Cloacae; culture number 9382) of 2 µg/mL (≈ 2.98 µM).
For `CC(C)(ON=C(C(=O)NC1CN(C(=O)NS(=O)(=O)N2CC(CNC(=O)c3cc(=O)c(O)c[nH]3)OC2=O)C1=O)c1csc(N)n1)C(=O)O` (stereo not shown) [E27 (b)], the MIC (Streptococcus Pyogenes) was 64 µg/mL (≈ 91.5 µM), the MIC (Klebsiella Pneumoniae) was 2 µg/mL (≈ 2.86 µM) and the MIC (Escherichia Coli; culture number 9379) was 0.125 µg/mL (≈ 0.179 µM). For the same molecule, the MIC (Escherichia Coli; culture number 9380) was 0.03 µg/mL (≈ 0.0429 µM), the MIC (Escherichia Coli; culture number 9451) was 0.06 µg/mL (≈ 0.0858 µM) and the MIC (Klebsiella Oxytoca; culture number 9383) was 4 µg/mL (≈ 5.72 µM). For the same molecule, the MIC (Klebsiella Oxytoca; culture number 9384) was 0.25 µg/mL (≈ 0.357 µM), the MIC (Citrobacter Freundli) was 0.5 µg/mL (≈ 0.715 µM) and the MIC (Serratia Marcescens; culture number 9888) was 0.5 µg/mL (≈ 0.715 µM). For the same molecule, the MIC (Proteus Vulgaris) was 0.5 µg/mL (≈ 0.715 µM), the MIC (Pseudomonas Aeruginosa; culture number 231) was 4 µg/mL (≈ 5.72 µM) and the MIC (Pseudomonas Aeruginosa; culture number 9191) was 8 µg/mL (≈ 11.4 µM). For the same molecule, the MIC (Enterobacter Cloacae; culture number 9381) was 128 µg/mL (≈ 183 µM) and the MIC (Enterobacter Cloacae; culture number 9382) was 8 µg/mL (≈ 11.4 µM).
In the case of `Cn1cc(O)c(=O)cc1C(=O)NN1CCN(S(=O)(=O)NC(=O)N2C[C@H](NC(=O)/C(=N\OC(C)(C)C(=O)O)c3csc(N)n3)C2=O)C1=O` [E42 (a)], the MIC (Streptococcus Pyogenes) is reported as 128 µg/mL (≈ 183 µM), the MIC (Klebsiella Pneumoniae) is reported as 2 µg/mL (≈ 2.86 µM) and the MIC (Streptococcus Faecalis) is reported as greater than 128 µg/mL. For the same molecule, the MIC (Escherichia Coli; culture number 9379) was 0.06 µg/mL (≈ 0.0859 µM), the MIC (Escherichia Coli; culture number 9380) was less than 0.015 µg/mL and the MIC (Escherichia Coli; culture number 9451) was 0.06 µg/mL (≈ 0.0859 µM). The MIC (Klebsiella Oxytoca; culture number 9383) was 1 µg/mL (≈ 1.43 µM), the MIC (Klebsiella Oxytoca; culture number 9384) was 0.5 µg/mL (≈ 0.716 µM) and the MIC (Streptococcus Pneumoniae) was greater than 128 µg/mL. The MIC (Citrobacter Freundli) was 0.5 µg/mL (≈ 0.716 µM), the MIC (Serratia Marcescens; culture number 6888) was 0.25 µg/mL (≈ 0.358 µM) and the MIC (Staphylococcus Aureus; culture number 3665) was greater than 128 µg/mL. For the same molecule, the MIC (Staphylococcus Aureus; culture number 6685) was greater than 128 µg/mL, the MIC (Staphylococcus Aureus; culture number 9218) was greater than 128 µg/mL and the MIC (Proteus Vulgaris) was 0.5 µg/mL (≈ 0.716 µM). For the same molecule, the MIC (Pseudomonas Aeruginosa; culture number 231) was 2 µg/mL (≈ 2.86 µM), the MIC (Pseudomonas Aeruginosa; culture number 9191) was 2 µg/mL (≈ 2.86 µM) and the MIC (Enterobacter Cloacae; culture number 9381) was 64 µg/mL (≈ 91.6 µM). It also gave an MIC (Enterobacter Cloacae; culture number 9382) of 4 µg/mL (≈ 5.73 µM).
`CCCCn1cc(O)c(=O)cc1C(=O)NN1CCN(S(=O)(=O)NC(=O)N2C[C@H](NC(=O)/C(=N\OC(C)(C)C(=O)O)c3csc(N)n3)C2=O)C1=O` [E42 (b), Propanoic acid, 2-[[[1-(2-amino-4-thiazolyl)-2-[[1-[[[[3-[[(1-butyl-1,4-dihydro-5-hydroxy-4-oxo-2-pyridinyl)carbonyl]amino]-2-oxo-1-imidazolidinyl]sulfonyl]amino]carbonyl]-2-oxo-3-azetidinyl]amino]-2-oxoethylidene]amino]oxy]-2-methyl-, [S-(Z)]-] gave an MIC (Streptococcus Pyogenes) of 16 µg/mL (≈ 21.6 µM), an MIC (Klebsiella Pneumoniae) of 0.5 µg/mL (≈ 0.675 µM) and an MIC (Streptococcus Faecalis) greater than 64 µg/mL. The MIC (Escherichia Coli; culture number 9379) was 0.5 µg/mL (≈ 0.675 µM), the MIC (Escherichia Coli; culture number 9380) was 0.25 µg/mL (≈ 0.338 µM) and the MIC (Escherichia Coli; culture number 9451) was 0.5 µg/mL (≈ 0.675 µM). The MIC (Klebsiella Oxytoca; culture number 9383) was 4 µg/mL (≈ 5.4 µM), the MIC (Klebsiella Oxytoca; culture number 9384) was 0.25 µg/mL (≈ 0.338 µM) and the MIC (Streptococcus Pneumoniae) was greater than 64 µg/mL. The MIC (Citrobacter Freundli) was 2 µg/mL (≈ 2.7 µM), the MIC (Serratia Marcescens; culture number 6888) was 1 µg/mL (≈ 1.35 µM) and the MIC (Staphylococcus Aureus; culture number 3665) was greater than 64 µg/mL. The MIC (Staphylococcus Aureus; culture number 6685) was greater than 64 µg/mL, the MIC (Staphylococcus Aureus; culture number 9218) was greater than 64 µg/mL and the MIC (Proteus Vulgaris) was 0.25 µg/mL (≈ 0.338 µM). It also gave an MIC (Pseudomonas Aeruginosa; culture number 231) greater than 64 µg/mL, an MIC (Pseudomonas Aeruginosa; culture number 9191) of 64 µg/mL (≈ 86.4 µM) and an MIC (Enterobacter Cloacae; culture number 9381) greater than 64 µg/mL. The MIC (Enterobacter Cloacae; culture number 9382) was 1 µg/mL (≈ 1.35 µM).
